Assay results reported in US11667661B2, “Benzimidazole derivatives, preparation method thereof and use thereof as anti-cancer agent comprising the same” (BIOMETRIX TECHNOLOGY INC, priority 2020, dated 2023).
Entries after “also recorded” stand apart in the source; their conditions may differ.

Columns and labels:
[1] = test system: human lung cancer cell line A549, cervical cancer cell line Hela, colorectal cancer cell line HT-29; assay: Cancer cell line growth inhibition test (WST-8 cell viability, 72 h); type: cell-based; settings: for Cancer Cell line growth inhibition test: relative evaluation compared to doxorubicin
Protocol: A human lung cancer cell line A549, a cervical cancer cell line Hela, and a colorectal cancer cell line HT-29 were adopted from the Korea Cell Line Bank (KCLB, Seoul, Korea) and cultured in a culture medium.
In a humidified cell culture incubator containing 5% CO2; at 37° C. using a DMEM and a 10% culture flask, fetal bovine serum (FBS), 0.1 mM MEM non-essential amino acid (NEAA), 2 mM L-glutamine, and 1% penicillin-streptomycin were trypsinized every 2 to 3 days according to the instructions provided by the KCLB to subculture the cells. The culture was cultured until reached 80% to 90% of confluence, and the cells were successively transferred to a culture flask for a cancer cell line growth inhibition test.
A cancer cell line, a human lung cancer cell line A549, a cervical cancer cell line Hela, and a colorectal cancer cell line HT-29 to be tested were seeded in a 96-well plate at about 10,000 cells per well.
After incubation, the medium was removed and the cell viability in each well was measured using a WST-8 cell viability assay kit (Quanti-Max™, BIOMAX) and according to a procedure instructed by a manufacturer.
The analysis used a principle that dehydrogenase of living cells decomposed tetrazolium salt to generate formazan, and through this, the living cells were quantitatively evaluated.
Reduced formazan salt was soluble in a cell culture medium and an amount of formazan was directly proportional to the number of living cells (Slater, T. et al. (1963) Biochem. Biophys. Acta 77:383. van de Loosdrecht, A. A., et al. J. Immunol. Methods 174: 311-320, 1994. Alley, M. C., et al. Cancer Res. 48: 589-601, 1988.).

[2] = test system: normal lung cell line MRC-5 and normal colon CCD-18Co cell line; assay: Toxicity test in normal cell line (WST-8 cell viability, 72 h); type: cell-based; settings: for Normal cell line toxicity test: relative evaluation compared to doxorubicin

Row | Substance | Cancer Cell line growth inhibition test [1] | Normal cell line toxicity test [2] | cancer cell line growth inhibition efficiency ([1]; FIG. 1, A549, Hela, HT-29, 0-100 μM, 72 hours, versus albendazole, fenbendazole, doxorubicin) | toxicity to the normal cell lines ([2]; FIG. 2, MRC-5, CCD-18Co, 0-100 μM, 72 hours, compared to albendazole, fenbendazole, and doxorubicin)
1 | Fenbendazole-1,2,3,4-Tetra-β-D-fructose [FB-2] | AA (AA represents equal (1 to 2 times)) | – | – | –
2 | Fenbendazole-1,2,3,4-Tetra-β-D-glucose [FB-1] | AA (AA represents equal (1 to 2 times)) | – | – | –
3 | albendazole-1,2,3,4-Tetra-β-D-fructose [AL-2] | AA (AA represents equal (1 to 2 times)) | AA (AA represents little toxicity ( 1/10 times)) | – | –
4 | albendazole-1,2,3,4-Tetra-β-D-glucose [AL-1] | AA (AA represents equal (1 to 2 times)) | AA (AA represents little toxicity ( 1/10 times)) | most excellent; also recorded: very excellent | very weak
